This assay concerns RSV A2. Description: RSV antiviral cytopathic effect (CPE) assay in HEp2 cells, MTT readout. The note with it: human respiratory syncytial virus, HEp-2, 120 h; HEp2 cells infected with RSV A2, moi ~0.01, 5 days, inhibition of CPE by 50%; read-out: Activity Range (RSV A2 EC50 mean values). The assay is classed as cell-based, respiratory syncytial virus. As for the experimental part: RSV Antiviral Assay Protocol
Compounds of the invention were tested for their antiviral activity against respiratory syncytial virus. Cytopathic effect (CPE) assays were performed essentially as described in the literature (see, for example, Watanabe et al, 1994, J. Virological Methods, 48:257). Serial dilutions of the test compounds were made in 96 well plates. HEp2 cells (1.0×10^4 cells/well) were infected with RSV at a low multiplicity of infection (e.g. RSV A2 at an moi of ˜0.01) and added to plates to assess antiviral activity. Uninfected HEp2 cells were used to assess compound cytotoxicity. Assays were incubated for 5 days at 37° C. in a 5% CO2 atmosphere. The extent of CPE was determined via metabolism of the vital dye 3-(4,5-dimethylthiaxol-2-yl)-2,5-diphenyltetrazolium bromide (MTT). MTT (1 mg/ml) was added to each well and plates incubated for 2 hours incubation at 37° C. Wells were aspirated, iso-propanol (200 μL) was added and absorbance values read at 540/650 nm. Compound concentrations that inhibited CPE by 50% (EC50) and developed cytotoxicity (CC50) were calculated using non-linear regression analysis.
In the inventors' experience, replicate EC50 values usually fall within three standard deviations of the mean.
A general note: Damage to the host cells serves as the signal in cytopathic effect assays.

A word on the EC50: it is the concentration at which the effect is half-maximal.

Structures are written as SMILES.

In the case of `Cn1nc(C(C)(C)C)cc1C(=O)N1CCN2C(=O)c3cc4ccsc4n3CC12c1ccc(F)cc1` (stereo not shown) [Compound 20, 1-[(3-tert-butyl-1-methyl-1H-pyrazol-5-yl)carbonyl]-11a-(4-fluorophenyl)-2,3,11,11a-tetrahydro-1H,5H-imidazo[1,2-a]thieno[3′,2′:4,5]pyrrolo[1,2-d]pyrazin-5-one], the half-maximal effective concentration (EC50) was greater than 10 µM.

Source of the values: patent US9359377B2, “Substituted imidazo[1,2-a]imidazo[4′,5′:4,5]pyrrolo[1,2-d]pyrazines for treating respiratory syncytial virus infections” (Biota Scientific Management Pty Ltd., priority 2011, dated 2016).
